These are literature values, as cited in patent publication US12178814B2, “Pharmaceutical composition” (ASTELLAS PHARMA INC., priority 2019, dated 2024).

This data set concerns EML4 (Echinoderm microtubule associated protein like-4)-ALK (Anaplastic lymphoma kinase) fusion protein. To be noted: reported in WO2010/128659, WO2017/006855.

Structures are written as SMILES.

Consider `CCc1nc(C(N)=O)c(Nc2ccc(N3CCC(N4CCN(C)CC4)CC3)c(OC)c2)nc1NC1CCOCC1` [gilteritinib, 6-Ethyl-3-{3-methoxy-4-[4-(4-methylpiperazin-1-yl)piperidin-1-yl]anilino}-5-[(oxan-4-yl)amino]pyrazine-2-carboxamide], for which the “inhibitory activity of a kinase activity of EML4-ALK fusion protein” value was “inhibitory activity”.
